Test results from publication PMC3969243, “A PIP5 Kinase Essential for Efficient Chemotactic Signaling” (Current Biology, 2014).

Key:
PikI [1] = molecular target: T1, PikI (Dictyostelium discoideum, UniProt Q55GN6, T262A); conditions: product PI(4,5)P2
T1 construct: gene DDB_G0267588

PikI [2] = molecular target: T2, PikI (Dictyostelium discoideum, UniProt Q55GN6, T262E); conditions: product PI(4,5)P2; phosphomimetic
T2 construct: gene DDB_G0267588

PikI [3] = molecular target: T3, PikI (Dictyostelium discoideum, UniProt Q55GN6); conditions: product PI(4,5)P2
T3 construct: gene DDB_G0267588
T3 sequence (Q55GN6 whole entry): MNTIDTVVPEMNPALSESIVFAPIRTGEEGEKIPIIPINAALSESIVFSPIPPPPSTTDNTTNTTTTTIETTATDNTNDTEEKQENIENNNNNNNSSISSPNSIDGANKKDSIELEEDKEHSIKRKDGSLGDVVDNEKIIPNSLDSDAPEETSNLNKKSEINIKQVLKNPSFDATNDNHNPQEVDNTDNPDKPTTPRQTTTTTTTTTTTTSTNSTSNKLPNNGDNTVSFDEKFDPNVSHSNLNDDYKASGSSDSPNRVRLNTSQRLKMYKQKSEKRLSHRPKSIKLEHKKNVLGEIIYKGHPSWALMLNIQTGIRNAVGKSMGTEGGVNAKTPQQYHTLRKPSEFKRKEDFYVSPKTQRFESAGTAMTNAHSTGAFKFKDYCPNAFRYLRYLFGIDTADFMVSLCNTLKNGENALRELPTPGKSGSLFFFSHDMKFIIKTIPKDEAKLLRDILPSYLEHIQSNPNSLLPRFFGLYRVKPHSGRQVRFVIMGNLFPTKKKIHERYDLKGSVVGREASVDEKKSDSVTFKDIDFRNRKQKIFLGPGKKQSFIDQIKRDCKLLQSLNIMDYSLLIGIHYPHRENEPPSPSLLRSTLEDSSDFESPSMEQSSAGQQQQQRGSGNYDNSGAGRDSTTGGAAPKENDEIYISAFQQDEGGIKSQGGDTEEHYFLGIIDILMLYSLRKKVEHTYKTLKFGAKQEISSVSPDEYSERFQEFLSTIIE

T1 sequence (Q55GN6 whole entry T262A): as the sequence (Q55GN6 whole entry) above, with T262A counted along it
T2 sequence (Q55GN6 whole entry T262E): as the sequence (Q55GN6 whole entry) above, with T262E counted along it

Substance: PI(4)P
- Km (PikI [1]): 4.6 ± 2.87 µM
- Km (PikI [2]): 6.39 ± 3.69 µM
- Km (PikI [3]): 5.74 ± 3.18 µM
